Here are results for 14 molecules from PMC4501119, “Cholestenoic acid, an endogenous cholesterol metabolite, is a potent γ-secretase modulator” (Molecular Neurodegeneration, 2015).

Test [1] relates to Aβ42 in CHO-2B7 cells (CHO cells stably overexpressing APP695). The test can be described thus: Cell-based Aβ sandwich ELISA of conditioned media from CHO-2B7 cells treated 16 h. On the set-up: species or system Chinese hamster. The settings on record: for GSM activity: dose dependent studies; for GSM activity / fold less potent than CA 2a (Aβ42 EC50): CHO-2B7 cells. On the procedure: Chinese hamster ovary (CHO) cells stably overexpressing APP695 (CHO-2B7 cells) were grown in Ham’s F-12 medium (Life Technologies) supplemented with 10 % fetal bovine serum and 100 units/ml of penicillin and 100 μg/ml streptomycin. Cells were grown at 37 °C in a humidified atmosphere containing 5 % CO2 in tissue culture plates (Costar). The cells were harvested at confluence and then utilized for biochemical analyses. Compounds were dissolved in dimethyl sulfoxide (DMSO) and screened in CHO-2B7 cells. The cells were incubated for 16 h in the presence of the compound diluted into OptiMEM-reduced serum medium (Life Technologies, Carlsbad, CA, USA) containing 1 % fetal bovine serum.
Monoclonal antibodies to Aβ were generated by the Mayo Clinic Immunology Core facilities (Jacksonville, FL, USA). Ab5 recognizes an epitope in the amino terminus of Aβ (Aβ1-16), recognizes both monomeric and aggregated Aβ, and is human specific. […] Ab 2.1.3 was raised against Aβ35-42 and is specific for Aβx-42. […] Total Aβ level was determined by capture with Ab5 and detected with horseradish peroxidase (HRP)-conjugated 4G8 (a monoclonal antibody against Aβ17-24; Covance, Waltham, MA, USA) with the other Aβ peptides detected with HRP-conjugated Ab5. For the cell-free assay and measuring mouse endogenous Aβ, HRP-conjugated 4G8 was used as the secondary detection antibody. Aβ standards (Bachem, King of Prussia, PA, USA) were prepared by dissolving in hexafluoroisopropanol (HFIP) at 1 mg/ml with sonication, dried under nitrogen, resuspended at 2 mg/ml HFIP, sonicated again and dried under nitrogen. The resulting Aβ was resuspended in 0.01 % ammonium hydroxide, portioned into aliquots in EC buffer, and frozen at −80 °C.

In test [2] the test system is Aβ42. The settings on record: cited from earlier work; for GSM activity: endogenous bile acids.
In test [3] the test system is brain mAβ42, mAβ38 and total mAβ. The test can be described thus: Brain Aβ levels after intraperitoneal injection in wild type mice. As to conditions: 30 mg/kg IP, brains harvested after 30 min, 1, 2 and 3 h. The format is in vivo, mouse (C57BL/6 or CF-1). On the procedure:
25(R)-CA powder was initially dissolved in DMSO (<4.5 % in the final mixture) and then combined with polyethylene glycol (15)-hydroxystearate (Solutol), ethanol, and water at a ratio of (15:10:75). One molar equivalent of sodium hydroxide was added to the mixture. We performed CA intraperitoneal (IP) injections to wild-type mice (C57BL/6 or CF-1). The mice were injected with 25(R)-CA on the right side of the abdomen. The injections have been performed with various time points (30 min, 1 h, 2 h, and 3 h) and with multiple doses (30 mg per kg (mg/kg), 60 mg/kg, 75 mg/kg and 100 mg/kg). The number of each cohort is 6–8. We used 30 mg/kg of CA for the time-course experiments, and for the dose–response experiments the end-point was set at 30 min. The brains and serum are harvested and frozen for brain Aβ extraction.
The mouse brains were harvested at the age of 3 months. The brains were weighed and recorded. The Diethylamine/Sodium Chloride (DEA/NaCl) extraction buffer (0.4 % DEA) was added to each sample and homogenized using a sonicator. The samples were transferred to a poly-carbonate centrifuge tube and spun down at 50,000xg for 30 min at 4 °C. The supernatant was loaded on the vacuum manifold with the appropriate number of HLB Oasis columns. The samples were loaded on the conditioned column, filtered, and eluted using prepared elution buffer (90 % Methanol, 2 % NH4OH). The eluates are concentrated using the Thermo-Savant SpeedVac concentrator for a minimum of 2 h at 55 °C with radiant heat. The concentrated samples are reconstituted in a blocking buffer (0.67 % Bovine serum albumin (BSA)) at the appropriate volume.
Monoclonal antibodies to Aβ were generated by the Mayo Clinic Immunology Core facilities (Jacksonville, FL, USA). […] Total Aβ level was determined by capture with Ab5 and detected with horseradish peroxidase (HRP)-conjugated 4G8 (a monoclonal antibody against Aβ17-24; Covance, Waltham, MA, USA) with the other Aβ peptides detected with HRP-conjugated Ab5. […] Following these steps, the Aβ is monomeric, as determined by size-exclusion chromatography.

Test [4] deals with endogenous mouse Aβ (mAβ) in primary neuron-glia cultures. Briefly: Primary mixed neuron-glia culture, endogenous mouse Aβ ELISA. The format is cell-based. On the procedure:
Primary mixed neuron-glia cultures were prepared from postnatal day 0 (P0) C3HBL/6 mouse brains (Harlan Labs). Cerebral cortices were dissected from P0 mouse brains and were dissociated in 2 mg/ml papain (Worthington) and 50 μg/mL DNAse I (Sigma) at 37 °C for 20 min. They were then washed three times in sterile Hank’s balanced salt solution (HBSS) to inactivate the papain and switched to 5 % fetal bovine serume (HyClone) in Neurobasal-A growth media (Gibco), which includes 0.5 mM L-glutamine (Gibco), 0.5 mM GlutaMax (Life Technologies), 0.01 % antibiotic-antimycotic (Gibco), and 0.02 % SM1 supplement (Stemcell). The tissue mixture was then triturated three times using a 5 mL pipette followed by a Pasteur pipette, and strained through a 70 μm cell strainer. The cell mixture was then centrifuged at 200xg for 3 min, and re-suspended in fresh Neurobasal-A media. They were then plated onto poly-D-lysine coated 96well plates at 100,000 cells/well. Cells were maintained in the Neurobasal-A growth media mentioned above without fetal bovine serum (FBS) at 37 °C in a humidified 5 % CO2 chamber.
(§1) Monoclonal antibodies to Aβ were generated by the Mayo Clinic Immunology Core facilities (Jacksonville, FL, USA). Ab5 recognizes an epitope in the amino terminus of Aβ (Aβ1-16), recognizes both monomeric and aggregated Aβ, and is human specific. […] Ab 2.1.3 was raised against Aβ35-42 and is specific for Aβx-42. […] For cell-based screens, Aβ was captured from conditioned medium with either Ab5, Ab38, Ab13.1.1, or Ab2.1.3 (coated at 10-50 μg/ml in EC buffer: 5 mM NaH2PO4-H2O, 20 mM Na2HPO4, 400 mM NaCl, 2.5 mM EDTA-full name, 151.5 μM BSA, 813 μM CHAPS, and 7.7 mM NaN3) on Immulon 4HBX Flat-Bottom Microfilter 96-well plates (Thermo Scientific, Waltham, MA, USA). Total Aβ level was determined by capture with Ab5 and detected with horseradish peroxidase (HRP)-conjugated 4G8 (a monoclonal antibody against Aβ17-24; Covance, Waltham, MA, USA) with the other Aβ peptides detected with HRP-conjugated Ab5. For the cell-free assay and measuring mouse endogenous Aβ, HRP-conjugated 4G8 was used as the secondary detection antibody. Aβ standards (Bachem, King of Prussia, PA, USA) were prepared by dissolving in hexafluoroisopropanol (HFIP) at 1 mg/ml with sonication, dried under nitrogen, resuspended at 2 mg/ml HFIP, sonicated again and dried under nitrogen. The resulting Aβ was resuspended in 0.01 % ammonium hydroxide, portioned into aliquots in EC buffer, and frozen at −80 °C. Following these steps, the Aβ is monomeric, as determined by size-exclusion chromatography.

In test [5] the target is T1, γ-secretase (Homo sapiens, UniProt P49768).
T1 construct: The membrane derived from the H4 neuroglioma cells overexpressing APP695wt were prepared by carbonate extraction; endogenous in cells; host or cells: H4 neuroglioma cells overexpressing APP695wt (membranes, carbonate extraction)
The test can be described thus: In vitro γ-secretase (broken cell) assay, membranes of H4 neuroglioma cells overexpressing APP695wt, Aβ ELISA. The settings on record: vs DMSO control, 2 h incubation. The format is biochemical. On the procedure:
Broken cell assays were performed with slight modifications from the previous studies. The membrane derived from the H4 neuroglioma cells overexpressing APP695wt were prepared by carbonate extraction and incubated at 37 °C for 2 h with CA at various concentrations. Aβ levels were quantified by sandwich ELISAs. For Aβ and AICD spectra, the recombinant C100Flag proteins were overexpressed and purified from Escherichia coli BL21 using a HiTrap Q-column (GE Life Science, Little Chalfont, U.K.). The membrane containing γ-secretase was isolated from the CHO S-1 cell line using sodium carbonate (100 mM, pH 11.0). For the in vitro γ-secretase assay, C100Flag recombinant protein at 25 μM was incubated with the membrane (100 μg/mL) in the presence of CA (20 μM) and DMSO in 150 mM sodium citrate buffer (pH 6.8) containing complete protease inhibitor (Roche, Indianapolis, IN) for 2 h at 37 °C.
as §1

Where [6] appears, read: Cricetulus griseus, CHO-2B7, 16 h, lowering Aβ42, CHO-2B7 cells, 16 h, ELISA.
Where [7] appears, read: lowering Aβ42, CHO-2B7 cells, 16 h, ELISA.
Where [8] appears, read: Cricetulus griseus, lowering Aβ42, CHO-2B7 cells, 16 h, ELISA.
The mark [9] stands for this setting: Cricetulus griseus, lowering Aβ42, CHO-2B7 cells, approximate value.

Like-named read-outs stand apart in the source and are kept apart here.

In general, EC50 refers to the concentration needed to bring the measured effect to its halfway point. On to `CC(CCCC(C)C1CCC2C3C(O)CC4=CC(=O)CCC4(C)C3CCC12C)C(=O)O` (stereo not drawn) [7α-OH-4-CA, 7α-hydroxy-4-oxo-cholestenoic acid], for which the EC50 in test [1] (setting [6]) turned out to be 4150 nM. Besides, in test [1], the GSM activity entry was “demonstrated GSM activity”.

The molecule `CC(CCCC(C)C1CCC2C3C(O)C=C4CC(O)CCC4(C)C3CCC12C)C(=O)O` (stereo not drawn) [7α-OH-CA, 7α-hydroxy-cholestenoic acid] displayed an EC50 in test [1] (setting [6]) of 970 nM. Further, the GSM activity result in test [1] is reported as “demonstrated GSM activity”.

Regarding `C[C@@H](CO)CCC[C@@H](C)[C@H]1CC[C@H]2[C@@H]3CC=C4C[C@@H](O)CC[C@]4(C)[C@H]3CC[C@]12C` [27-OHC, 27-hydroxycholesterol], the GSM activity result in test [1] was “inactive”. Further, the “Aβ42 EC50” value in test [1] (setting [7]) was “could not be determined”.

For the molecule `C[C@H](CCC(=O)O)[C@H]1CC[C@H]2[C@@H]3CC[C@@H]4CCCC[C@]4(C)[C@H]3CC[C@]12C` [Cmpd 1, 5β-Cholanic acid], the EC50 in test [2] (decreasing Aβ42) is approximately 5700 nM; in test [2] (decreasing Aβ42, listed as 5β-cholanic acid), 5700 nM.

In the case of `C[C@H](CCC[C@H](C)C(=O)O)[C@H]1CC[C@H]2[C@@H]3CC=C4C[C@@H](O)CC[C@]4(C)[C@H]3CC[C@]12C` [Cmpd 2b, 25-(S)-CA], in test [1], the “fold less potent than CA 2a (Aβ42 EC50)” value is recorded as “about 2 fold”. In addition, the EC50 in test [1] (setting [7]) is 501 nM.

With `O=C(O)[C@H](CC1CCC1)c1cc(Cl)c(OCC(F)(F)F)c(-c2ccc(C(F)(F)F)cc2)c1` [Cmpd 3, (R)-2-(5-chloro-6-(2,2,2-trifluoroethoxy)-4’-(trifluoromethyl)biphenyl-3-yl)-3-cyclobutylpropanoic acid], the EC50 in test [2] (GSM activity, ref the previous literature) was 67 nM.

Regarding `CC(C)CC(c1ccc(Cl)cc1)N1CC[C@@H](CC(=O)O)C[C@H]1c1ccc(C(F)(F)F)cc1` (stereo partly drawn) [Cmpd 4, reference compound], the EC50 in test [1] (setting [6]) was 92 nM. Moreover, the “brain Aβ levels” value in test [3] is “expected Aβ modulation”. Further, in test [4] (1 μM), the mAβ38 level entry is “increased” and the mAβ42 level result is recorded as “decreased”.

With `C[C@H](CCCC(=O)O)[C@H]1CC[C@H]2[C@@H]3CC=C4C[C@@H](O[Si](C)(C)C(C)(C)C)CC[C@]4(C)[C@H]3CC[C@]12C` [Cmpd 5], the results for the EC50 in test [1] (setting [8]) and in test [1] (setting [9]) were 1780 nM and approximately 2000 nM, respectively.

With `C[C@H](CCCC(=O)O)[C@H]1CC[C@H]2[C@@H]3CC=C4C[C@@H](O)CC[C@]4(C)[C@H]3CC[C@]12C` [Cmpd 6], the EC50 in test [1] (setting [8]) was 1960 nM; in test [1] (setting [9]), approximately 2000 nM.

In test [1] (setting [7]), `CC(CCCC(C)C1CCC2C3CC=C4CC(F)CCC4(C)C3CCC12C)C(=O)O` (stereo not drawn) [Cmpd 12] gave an EC50 of 8910 nM.

In the case of `CC(CCC[C@@H](C)[C@H]1CC[C@H]2[C@@H]3CC=C4CCCC[C@]4(C)[C@H]3CC[C@]12C)C(=O)O` (stereo partly drawn) [Cmpd 13, 3-deoxy-CA], in test [1], the “fold less potent than CA 2a (Aβ42 EC50)” value is recorded as “approximately 3 fold”. In test [1] (setting [7]), this molecule displayed an EC50 of 670 nM.

`C[C@H](NC(=O)Cc1cc(F)cc(F)c1)C(=O)N[C@H]1N=C(c2ccccc2)c2ccccc2N(C)C1=O` [Cmpd E, reference compound]: in test [4], the “overall Aβ production” value is “decreased”. Further, the “decrease of total Aβ production” value in test [5] was found to be 77%. Besides, the “decrease of Aβ42 production” value in test [5] (CA at 150 μM) worked out at 91%.

With `C[C@H](CCC(=O)O)[C@H]1CC[C@H]2[C@@H]3CC[C@@H]4C[C@H](O)CC[C@]4(C)[C@H]3CC[C@]12C` [lithocholic acid], the GSM activity result in test [2] was “GSMs”.

As to `C[C@H](CCC(=O)O)[C@H]1CC[C@H]2[C@@H]3[C@@H](O)C[C@@H]4C[C@H](O)CC[C@]4(C)[C@H]3C[C@H](O)[C@]12C` [ursocholic acid], the GSM activity result in test [2] is “GSMs”.
